Experimental findings from patent US20200061092A1, “METHODS AND COMPOSITIONS FOR TREATING DISORDERS ASSOCIATED WITH MUSCLE WEAKNESS” (priority 2018, published 2020) are described below.

For assay [1], the system named is FKRP P448L mutant mice. The assay can be described thus: Whole body plethysmography (respiratory function) in P448L mice. In kind it is in vivo, mouse. As for the experimental part: Respiratory functional analysis in conscious, freely moving 18 and 31 weeks old mice were measured using a whole-body plethysmography technique. The plethysmograph apparatus (Emka Technologies, Falls Church, Va.) was connected to a ventilation pump for the purpose of maintaining a constant air flow, a differential pressure transducer, a usbAMP signal amplifier, and a computer running EMKA iox2 software with the respiratory flow analyzer module, which was used to detect pressure changes due to breathing and recording the transducer signal. An initial amount of 20 mL of air was injected and withdrawn via a 20 mL syringe into the chamber for the purpose of calibration. Mice were placed inside the “free moving” plethysmograph chamber and allowed to acclimate for 5 min in order to minimize any effects of stress related changes in ventilation. Resting ventilation was measured for a duration of 15 min after the acclimation period. Body temperatures of all mice were assumed to be 37° C. and to remain constant during the ventilation protocol.

Assay [2] deals with F-α-DG (functionally glycosylated α-DG). The assay can be described thus: Western blot (IIH6C4) quantification and laminin overlay assay of muscle lysates from ribitol-treated P448L mice. In kind it is in vivo, mouse. To be noted: for F-α-DG by IIH6C4 western blot, % of normal (C57) levels: 6 months (FIG. 3c). The method, then: Ribitol was purchased from Sigma (A5502 Adonitol, ≥98%, Sigma, St. Louis) and dissolved in drinking water to the final concentration of 5% or 10%. […] mice aged at 4 weeks were treated with 5% ribitol drinking water for 1 month and […] mice aged at 7 weeks were treated with 5% ribitol drinking water for 3 months and 6 months. All the mice were randomly assigned to either treatment or control groups. And a minimum number of 4 mice were used for each group. No animal was excluded. […] female breeders were given 10% ribitol in drinking water during pregnancy, and pups continued to be treated with 10% ribitol in drinking water until they were euthanized at 19 weeks of age. Untreated age-matched […] and wild-type C57BL/6 mice were used as controls. The animals were terminated at the end of each treatment time point and tissues including heart, diaphragm, TA, quadriceps, liver, spleen and kidney were collected for analyses. For western blot analysis, tissues were homogenized in extraction buffer (50 mM Tris-HCl pH 8.0, 150 mM NaCl, and 1% Triton X-100), supplemented with 1× protease inhibitor cocktail (Sigma-Aldrich). Protein concentration was quantified by Bradford assay (Bio-Rad DC protein assay). Eighty μg of protein was loaded on a 4-15% Bio-Rad Mini-PROTEAN TGX gel (Bio-Rad) and immunoblotted. Amount of total protein loaded for C57 mice was half of the amount loaded for the […] mice. Nitrocellulose membranes (Bio-Rad) were blocked with 5% milk in 1×PBS for 2 hr at room temperature and then incubated with the following primary antibodies overnight at 4° C.: IIH6C4 (1:2000), AF6868 (R&D Systems) (1:1000) and α-actin (Sigma) (1:1000). Appropriate horseradish peroxidase (HRP)-conjugated secondary antibodies were incubated for 2 hr at room temperature. All blots were developed by electrochemiluminescence immunodetection (PerkinElmer). For IIH6C4 band quantification from western blot ImageJ software was used. For laminin overlay assay, nitrocellulose membranes were blocked with laminin overlay buffer (10 mM ethanolamine, 140 mM NaCl, 1 mM MgCl2, and 1 mM CaCl2, pH 7.4) containing 5% nonfat dry milk for 1 hr at 4° C. followed by incubation with laminin from Engelbreth-Holm-Swarm murine sarcoma basement membrane (L2020) (Sigma) at a concentration of 2 μg/ml overnight at 4° C. in laminin overlay buffer. Membranes were then incubated with rabbit anti-laminin antibody (Sigma) (1:1500) followed by goat anti-rabbit HRP-conjugated IgG secondary antibody (Santa Cruz Biotechnology) (1:3000). Blots were saturated with Western-Lightning Plus ECL (Perkin-Elmer) before exposure to and developing of GeneMate auto-radiographic film (VWR).
(A western blot detects proteins with antibodies after separation by electrophoresis.)

Assay [3] deals with FKRP P448L mutant mice. The assay is described as follows: Muscle function tests (treadmill exhaustion, grip strength) in P448L mice. The format is in vivo, mouse. As for the experimental part: For treadmill exhaustion test, 17 and 30 weeks old mice were placed on the belt of a five-lane-motorized treadmill (LE8700 treadmill, Panlab/Harvard Apparatus, Barcelona, Spain) supplied with shock grids mounted at the back of the treadmill, which delivered a 0.2 mA current to provide motivation for exercise. Initially, the mice were subjected to an acclimation period (time, 5 min; speed, 8 cm/s, and 0° incline). Immediately after acclimation period, the test commenced with speed increases of 2 cm/s every minute until exhaustion. The test was stopped and the time to exhaustion was determined when the mouse remained on the shock grid for 5 s without attempting to re-engage the treadmill. For grip force test, forelimb and hindlimb in peak torque was measured by a grip strength meter (Columbus Instruments). For forelimb force, the animal was held so that only the forelimb paws grasp the specially designed mouse flat mesh assembly, and was pulled back from the tail until the grip was broken. The force transducer recorded the peak force reached when the animal's grip is broken. For hindlimb force, an angled mesh assembly was used. Mice were allowed to rest on the angled mesh assembly, facing away from the meter with its hindlimbs at least one-half of the way down the length of the mesh. The mouse tail was pulled directly toward the meter and parallel to the mesh assembly. During this procedure, the mice resist by grasping the mesh with all four limbs. Pulling toward the meter was continued until the hindlimbs released from the mesh assembly. Five successful hindlimb and forelimb force measurements within 2 minutes were recorded. The average value was used for analysis. Force was presented as values of KGF (kilogram-force) units normalized to bodyweights (gr) as “Units/gr”. The tests were performed 1 week before euthanasia.

For assay [4], the system named is muscular dystrophy caused by FKRP mutations. The assay can be described thus: Ribitol/ribose supplementation in animal model of FKRP mutation muscular dystrophy. The settings on record: supplement via drinking water. In kind it is in vivo.
The mark [5] stands for this setting: 10% ribitol from pregnancy, 18 weeks of age.

With `OC[C@@H](O)[C@@H](O)[C@@H](O)CO` [ribitol], the “Tidal volume (TV), expiratory volume (EV), minute volume (MV) vs untreated” value in assay [1] (5% ribitol, 3 and 6 months) is reported as “trend of improvement”. Further, the “Improvement in EV and MV” value in assay [1] (5% ribitol, 6 months) is “statistically significant”. Moreover, the “Peak inspiratory flow (PIF) and peak expiratory flow (PEF)” value in assay [1] (5% ribitol, 6 months) is “Improvement was also observed”. In assay [1] (setting [5]), the “Expired volume (EV), relaxation time (RT), enhanced pause (Penh)” value was “improvement”. The “Minute volume (MV) and end-expiratory pause (EEP) vs untreated” value in assay [1] (setting [5]) is “reaching significant difference”. Further, the “Functionality of glycosylated α-DG by laminin overlay assay” value is reported as “supported by laminin overlay assay” in assay [2] (5% ribitol, 6 months) and “supported by laminin overlay assay” in assay [2] (10% ribitol from pregnancy to 19 weeks). Moreover, the “F-α-DG by IIH6C4 western blot, % of normal (C57) levels” value in assay [2] (5% ribitol, cardiac muscle) is reported as “up to 14%”; in assay [2] (5% ribitol, diaphragm), not above 17%. Moreover, the “F-α-DG by IIH6C4 western blot, % of normal levels” value in assay [2] (10% ribitol from pregnancy to 19 weeks, diaphragm) turned out to be 18%; in assay [2] (10% ribitol from pregnancy to 19 weeks, heart) it was 14%; in assay [2] (10% ribitol from pregnancy to 19 weeks, limb muscle), 26%. In assay [3] (5% ribitol, 3 and 6 months), the “Limb muscle function (treadmill exhaustion test)” value is reported as “significant improvement in limb muscle function was not demonstrated”. The “Treadmill running distance and time vs untreated” value in assay [3] (10% ribitol from pregnancy, 17 weeks of age) was “significantly longer”. The “Grip strength, forelimb force vs untreated” value in assay [3] (setting [5]) is listed as “significant improvement”. In addition, the “Disease pathology of muscular dystrophy caused by FKRP mutations” value in assay [4] is reported as “diminish disease pathology”.
